Measured values taken from ChEMBL document CHEMBL1649420, “Identifying chelators for metalloprotein inhibitors using a fragment-based approach” (J Med Chem, 2011).

What was measured:
[1] = molecular target: T1, Interstitial collagenase (Homo sapiens) (UniProt P03956); conditions: at 1 mM;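 further: recombinant human enzyme, with inhibition measured after 30 min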
T1 sequence (whole entry): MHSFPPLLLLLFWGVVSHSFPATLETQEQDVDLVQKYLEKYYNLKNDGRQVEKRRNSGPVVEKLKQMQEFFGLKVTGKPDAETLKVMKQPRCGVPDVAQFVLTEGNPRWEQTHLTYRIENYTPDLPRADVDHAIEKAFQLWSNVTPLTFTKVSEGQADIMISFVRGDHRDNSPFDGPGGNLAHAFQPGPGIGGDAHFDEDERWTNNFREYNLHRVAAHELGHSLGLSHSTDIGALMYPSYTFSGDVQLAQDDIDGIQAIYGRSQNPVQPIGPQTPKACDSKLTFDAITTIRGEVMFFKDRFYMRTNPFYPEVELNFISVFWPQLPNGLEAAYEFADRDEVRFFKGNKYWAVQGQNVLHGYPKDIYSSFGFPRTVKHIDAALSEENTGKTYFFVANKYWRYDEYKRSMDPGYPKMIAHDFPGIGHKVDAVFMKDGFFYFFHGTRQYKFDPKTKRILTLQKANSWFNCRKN

[2] = molecular target: Neutrophil collagenase (Homo sapiens) (UniProt P22894); conditions: at 1 mM;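 further: recombinant human MMP8 enzyme, percent inhibition read after 30 min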
Neutrophil collagenase (Homo sapiens), sequence (P22894 101-467 limits assumed): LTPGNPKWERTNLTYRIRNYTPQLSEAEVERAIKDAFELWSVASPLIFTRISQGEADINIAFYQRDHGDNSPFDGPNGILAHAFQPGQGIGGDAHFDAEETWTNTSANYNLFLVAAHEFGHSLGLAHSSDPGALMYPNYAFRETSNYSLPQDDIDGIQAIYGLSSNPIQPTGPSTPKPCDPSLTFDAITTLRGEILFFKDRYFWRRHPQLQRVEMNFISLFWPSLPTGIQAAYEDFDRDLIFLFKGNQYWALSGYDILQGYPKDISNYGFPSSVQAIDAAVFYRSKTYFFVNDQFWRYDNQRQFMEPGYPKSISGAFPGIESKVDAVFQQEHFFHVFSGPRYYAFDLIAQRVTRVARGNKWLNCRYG

[3] = molecular target: T2, Tyrosinase (Agaricus bisporus) (UniProt O42713); conditions: at 1 mM;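 further: inhibition measured at 10 min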
T2 sequence (whole entry): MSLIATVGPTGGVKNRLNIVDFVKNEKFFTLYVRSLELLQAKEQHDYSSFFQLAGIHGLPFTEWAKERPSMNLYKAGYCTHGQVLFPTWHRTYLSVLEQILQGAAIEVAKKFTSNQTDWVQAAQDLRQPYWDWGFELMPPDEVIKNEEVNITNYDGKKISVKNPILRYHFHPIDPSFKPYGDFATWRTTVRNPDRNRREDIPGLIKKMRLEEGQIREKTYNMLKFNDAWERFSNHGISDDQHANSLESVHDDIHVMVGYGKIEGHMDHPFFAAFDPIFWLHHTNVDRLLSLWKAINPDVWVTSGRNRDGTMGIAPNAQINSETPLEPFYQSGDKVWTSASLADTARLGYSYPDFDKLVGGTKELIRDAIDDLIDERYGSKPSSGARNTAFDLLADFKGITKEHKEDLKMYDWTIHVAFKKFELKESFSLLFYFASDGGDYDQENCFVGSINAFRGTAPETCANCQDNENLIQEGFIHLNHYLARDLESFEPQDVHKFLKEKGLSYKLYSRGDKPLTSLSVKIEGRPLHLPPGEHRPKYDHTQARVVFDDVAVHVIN

[4] = molecular target: Stromelysin-1 (Homo sapiens) (UniProt P08254); conditions: at 1 mM;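 further: recombinant enzyme, inhibition read after a 30 min incubation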
Stromelysin-1 (Homo sapiens), sequence (P08254 100-477 limits assumed): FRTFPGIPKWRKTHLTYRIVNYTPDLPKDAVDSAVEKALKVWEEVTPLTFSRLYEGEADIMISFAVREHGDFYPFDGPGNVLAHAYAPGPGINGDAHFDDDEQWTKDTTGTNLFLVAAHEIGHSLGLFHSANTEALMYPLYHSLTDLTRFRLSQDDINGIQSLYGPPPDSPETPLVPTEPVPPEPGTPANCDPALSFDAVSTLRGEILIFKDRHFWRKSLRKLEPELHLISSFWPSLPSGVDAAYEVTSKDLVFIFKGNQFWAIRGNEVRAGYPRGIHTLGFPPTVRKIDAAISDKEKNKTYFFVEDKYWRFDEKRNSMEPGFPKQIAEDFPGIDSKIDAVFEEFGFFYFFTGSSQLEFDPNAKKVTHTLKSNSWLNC

[5] = molecular target: T3, Polyunsaturated fatty acid 5-lipoxygenase (Homo sapiens) (UniProt P09917); test: Inhibition of human recombinant 5-lipoxygenase at 1 mM after 10 mins by fluorescence assay
T3 sequence (whole entry): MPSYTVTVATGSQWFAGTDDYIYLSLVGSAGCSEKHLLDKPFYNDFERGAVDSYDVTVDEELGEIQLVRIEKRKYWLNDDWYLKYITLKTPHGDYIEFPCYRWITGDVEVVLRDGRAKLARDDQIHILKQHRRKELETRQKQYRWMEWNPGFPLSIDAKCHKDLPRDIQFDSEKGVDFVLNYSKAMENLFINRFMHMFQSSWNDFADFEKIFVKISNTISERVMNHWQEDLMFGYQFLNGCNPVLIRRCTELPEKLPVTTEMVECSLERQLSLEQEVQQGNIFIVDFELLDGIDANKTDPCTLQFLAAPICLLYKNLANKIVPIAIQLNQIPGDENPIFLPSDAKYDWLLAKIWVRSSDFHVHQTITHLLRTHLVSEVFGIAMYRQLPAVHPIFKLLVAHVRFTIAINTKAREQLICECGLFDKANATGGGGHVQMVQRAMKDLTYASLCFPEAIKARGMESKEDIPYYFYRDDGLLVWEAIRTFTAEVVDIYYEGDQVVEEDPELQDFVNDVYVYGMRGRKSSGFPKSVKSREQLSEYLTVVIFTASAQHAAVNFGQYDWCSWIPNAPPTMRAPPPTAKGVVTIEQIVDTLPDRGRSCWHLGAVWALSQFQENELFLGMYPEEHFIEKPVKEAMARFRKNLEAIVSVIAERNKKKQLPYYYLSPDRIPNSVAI

[6] = molecular target: Matrix metalloproteinase-9 (Homo sapiens) (UniProt P14780); conditions: at 1 mM;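 further: recombinant human MMP9, activity read after 30 min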
Matrix metalloproteinase-9 (Homo sapiens), sequence (P14780 whole entry): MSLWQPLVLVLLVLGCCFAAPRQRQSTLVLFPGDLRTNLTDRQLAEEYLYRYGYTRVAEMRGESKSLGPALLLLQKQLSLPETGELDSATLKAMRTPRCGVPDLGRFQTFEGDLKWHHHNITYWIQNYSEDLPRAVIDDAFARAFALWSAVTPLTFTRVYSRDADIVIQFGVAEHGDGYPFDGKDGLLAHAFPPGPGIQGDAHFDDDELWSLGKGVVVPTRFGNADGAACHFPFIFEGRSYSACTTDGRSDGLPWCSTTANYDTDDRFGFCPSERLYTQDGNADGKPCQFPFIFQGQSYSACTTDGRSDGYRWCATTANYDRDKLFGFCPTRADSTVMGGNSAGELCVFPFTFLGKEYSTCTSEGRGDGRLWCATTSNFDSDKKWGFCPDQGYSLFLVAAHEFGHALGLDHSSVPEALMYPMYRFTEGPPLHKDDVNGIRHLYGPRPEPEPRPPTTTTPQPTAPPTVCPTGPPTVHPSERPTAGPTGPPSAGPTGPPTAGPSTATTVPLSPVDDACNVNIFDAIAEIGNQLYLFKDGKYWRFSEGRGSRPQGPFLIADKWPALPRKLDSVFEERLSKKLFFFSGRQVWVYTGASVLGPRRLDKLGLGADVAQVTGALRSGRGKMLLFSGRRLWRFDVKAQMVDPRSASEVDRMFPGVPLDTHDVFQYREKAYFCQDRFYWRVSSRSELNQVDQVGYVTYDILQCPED

[7] = molecular target: 72 kDa type IV collagenase (Homo sapiens, UniProt P08253); conditions: at 1 mM;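 further: recombinant human enzyme, inhibition read after a 30 min incubation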
72 kDa type IV collagenase, sequence (P08253 110-660 limits assumed): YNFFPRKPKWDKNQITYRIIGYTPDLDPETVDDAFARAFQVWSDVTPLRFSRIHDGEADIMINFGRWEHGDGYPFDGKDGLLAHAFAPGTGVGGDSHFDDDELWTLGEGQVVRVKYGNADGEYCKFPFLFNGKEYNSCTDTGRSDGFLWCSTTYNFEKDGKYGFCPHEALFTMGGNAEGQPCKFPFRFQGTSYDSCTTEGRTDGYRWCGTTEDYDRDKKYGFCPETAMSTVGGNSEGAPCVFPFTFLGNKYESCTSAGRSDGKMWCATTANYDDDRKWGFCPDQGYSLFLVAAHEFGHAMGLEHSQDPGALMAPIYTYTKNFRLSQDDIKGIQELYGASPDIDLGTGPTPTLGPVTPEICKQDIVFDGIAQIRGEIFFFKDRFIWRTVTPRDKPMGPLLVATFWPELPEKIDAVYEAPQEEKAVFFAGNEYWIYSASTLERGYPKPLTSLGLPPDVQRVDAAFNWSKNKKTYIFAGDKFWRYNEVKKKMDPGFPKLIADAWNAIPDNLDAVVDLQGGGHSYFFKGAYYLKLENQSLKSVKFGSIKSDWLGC

[8] = molecular target: T4, Lethal factor (Bacillus anthracis) (UniProt P15917); conditions: at 1 mM
T4 sequence (whole entry): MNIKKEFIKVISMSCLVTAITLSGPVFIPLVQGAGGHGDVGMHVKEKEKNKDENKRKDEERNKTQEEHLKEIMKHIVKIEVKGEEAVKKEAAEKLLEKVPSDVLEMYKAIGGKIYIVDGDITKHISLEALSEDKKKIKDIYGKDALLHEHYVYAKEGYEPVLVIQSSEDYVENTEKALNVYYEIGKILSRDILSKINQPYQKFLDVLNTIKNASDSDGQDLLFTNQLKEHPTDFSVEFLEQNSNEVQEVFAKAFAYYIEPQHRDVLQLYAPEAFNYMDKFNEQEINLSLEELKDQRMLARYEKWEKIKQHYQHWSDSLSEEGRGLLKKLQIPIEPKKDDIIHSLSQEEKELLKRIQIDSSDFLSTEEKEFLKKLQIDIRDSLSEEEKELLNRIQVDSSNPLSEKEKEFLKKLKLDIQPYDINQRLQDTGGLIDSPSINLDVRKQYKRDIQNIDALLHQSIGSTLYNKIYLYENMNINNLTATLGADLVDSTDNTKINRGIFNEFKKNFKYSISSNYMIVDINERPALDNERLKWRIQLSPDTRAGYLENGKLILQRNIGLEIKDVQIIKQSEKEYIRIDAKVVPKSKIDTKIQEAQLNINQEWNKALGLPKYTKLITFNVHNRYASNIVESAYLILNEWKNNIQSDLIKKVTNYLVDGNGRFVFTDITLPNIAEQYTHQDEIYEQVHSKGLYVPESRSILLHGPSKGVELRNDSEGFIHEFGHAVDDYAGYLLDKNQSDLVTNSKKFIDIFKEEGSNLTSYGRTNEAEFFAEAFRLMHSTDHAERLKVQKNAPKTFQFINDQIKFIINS

Row | SMILES | inhibition [1] [%] | inhibition [2] [%] | inhibition [3] [%] | inhibition [4] [%] | inhibition [5] [%] | inhibition [6] [%] | inhibition [7] [%] | inhibition [8] [%]
1 | Cc1c(O)c(=S)ccn1C | 78 | 95 | 100 | 99 | 95 | 100 | 100 | 51
2 | Oc1ccc2ccccc2c1O | 71 | 100 | – | 89 | 69 | 86 | 71 | 85
3 | Cc1cc(=O)[nH]c(=S)[nH]1 | 40 | 31 | 31 | 37 | 70 | 27 | 26 | 29
4 | O=C(O)c1ccc(O)c(O)c1 | 14 | 13 | 50 | 0 | 86 | -1 | -8 | 21
5 | O=c1ccc2ccccc2[nH]1 | 20 | 33 | 5 | 3 | 22 | 5 | 5 | 36
6 | [O-][n+]1ccccc1S | 78 | 90 | 81 | 100 | 70 | 77 | 91 | 23
7 | Oc1nccc(S)n1 | 90 | 83 | 44 | 95 | 46 | 90 | – | 22
8 | CCc1c(O)c(=S)ccn1CC | 81 | 94 | 100 | 99 | 97 | 100 | 100 | 55
9 | Cc1ccc(C(=O)O)c(C(=O)O)n1 | 8 | 11 | 96 | 28 | 22 | -10 | – | 43
10 | O=c1cc[nH]c(=S)[nH]1 | 52 | 37 | 36 | 47 | – | 44 | 47 | 33
11 | Cn1cccc(O)c1=S | 89 | 96 | 93 | 90 | 93 | 96 | 100 | 56
12 | CCn1ccc(=S)c(O)c1C | 98 | 93 | 100 | 99 | 96 | 100 | 100 | 60
13 | Oc1ccccc1-c1nc2ccccc2s1 | 6 | 40 | 34 | 4 | – | 3 | 7 | 1
14 | Oc1ccccc1-c1nc2ccccc2o1 | 11 | 28 | 3 | 4 | – | – | 1 | 0
15 | CS(=O)(=O)Nc1cccc2cccnc12 | 57 | 75 | – | 64 | 13 | 59 | 84 | –
16 | Nc1cccc2cccnc12 | 63 | 61 | – | 56 | – | 57 | 51 | 30
17 | COc1ccccc1S | 11 | 26 | – | -8 | – | 17 | 3 | 19
18 | Oc1ccc(Cl)c2cccnc12 | 39 | 73 | 0 | 45 | – | 1 | 60 | 44
19 | Cc1cc(C)nc(S)n1 | 56 | 49 | 99 | 70 | 80 | 56 | 55 | 15
20 | Oc1cc(O)nc(S)n1 | 30 | 25 | 99 | 38 | 72 | 15 | 17 | 18
21 | O=C1C=C(O)C(=O)c2ccccc21 | 86 | 86 | 69 | 84 | 100 | 85 | 84 | 100
22 | CC(C)c1cccc(C(=O)O)c1O | 13 | 3 | 91 | 5 | -3 | 9 | -2 | -3
